# Measured values as given in US20170190671A1, “BIS(ARYL)CATECHOL DERIVATIVES AS HERBICIDES” (E I DU PONT DE NEMOURS AND COMPANY, priority 2014, published 2017).
# Tests used:
# Experiment in all cases: Test C preemergence
# Type in all cases: in vivo
# [1] = tested on: Italian ryegrass (Lolium multiflorum); conditions: Lolium multiflorum, pre-emergence, 336 h, scale 0 to 100, read-out: Plant response rating, Ryegrass, Italian
# Summary of the method: (§1)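 Steps: plant seeds in loam-sand soil and treat preemergence, or grow plants in peat-based medium to 2-18 cm and spray; compound formulated in non-phytotoxic solvent/surfactant; hold in greenhouse 13-15 days; score visually versus controls from 0 (no effect) to 100 (complete control).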
# [2] = tested on: barnyardgrass (Echinochloa crus-galli); conditions: Echinochloa crus-galli, pre-emergence, read-out: Plant response rating, Barnyardgrass
# Summary of the method: as §1
# [3] = tested on: blackgrass (Alopecurus myosuroides); conditions: Alopecurus myosuroides, pre-emergence, 336 h, scale 0 to 100, read-out: Plant response rating, Blackgrass
# Summary of the method: as §1
# corn (Zea mays) = conditions: Zea mays, pre-emergence, 336 h, scale 0 to 100
# Summary of the method: as §1
# [4] = tested on: galium (catchweed bedstraw, Galium aparine); conditions: Galium, pre-emergence, 336 h, scale 0 to 100, read-out: Plant response rating, Galium
# Summary of the method: as §1
# [5] = tested on: giant foxtail (Setaria faberii); conditions: Setaria faberi, pre-emergence, 336 h, scale 0 to 100, read-out: Plant response rating, Foxtail, Giant
# Summary of the method: as §1
# [6] = tested on: lambsquarters (Chenopodium album); conditions: Chenopodium album, pre-emergence, 336 h, scale 0 to 100, read-out: Plant response rating, Lambsquarters
# Summary of the method: as §1
# [7] = tested on: large (Lg) crabgrass (Digitaria sanguinalis); conditions: Digitaria sanguinalis, pre-emergence, 336 h, scale 0 to 100, read-out: Plant response rating, Crabgrass, Large
# Summary of the method: as §1
# [8] = tested on: oilseed rape (Brassica napus); conditions: Brassica napus, pre-emergence, scale 0 to 100, read-out: Plant response rating, Oilseed Rape
# Summary of the method: as §1
# [9] = tested on: ragweed (common ragweed, Ambrosia elatior); conditions: Ambrosia artemisiifolia, pre-emergence, 336 h, scale 0 to 100, read-out: Plant response rating, Ragweed
# Summary of the method: as §1
# soybean (Glycine max) = conditions: Glycine max, pre-emergence, scale 0 to 100, read-out: Plant response rating, Soybean
# Summary of the method: as §1
# [10] = tested on: velvetleaf (Abutilon theophrasti); conditions: Abutilon theophrasti, pre-emergence, scale 0 to 100, read-out: Plant response rating, Velvetleaf
# Summary of the method: as §1
# [11] = tested on: waterhemp (common waterhemp, Amaranthus rudis); conditions: Amaranthus tuberculatus, pre-emergence, scale 0 to 100, read-out: Plant response rating, Waterhemp
# Summary of the method: as §1
# [12] = tested on: winter wheat (Triticum aestivum); conditions: Triticum aestivum, pre-emergence, 336 h, scale 0 to 100, read-out: Plant response rating, Wheat
# Summary of the method: as §1
# [13] = tested on: yellow nutsedge (Cyperus esculentus); conditions: Cyperus, pre-emergence, 336 h, scale 0 to 100, read-out: Plant response rating, Nutsedge, Yellow
# Summary of the method: as §1
compound,measurement,setting,value
"Fc1cccc(Oc2ncc(Cl)cn2)c1Oc1ncc(Cl)cn1 [Compound 21, 2,2′-[[3-fluoro-1,2-phenylene]bis(oxy)]bis[5-chloropyrimidine]]",pest or weed control at 31 g/ha,"[1]; 31 g ai/ha, preemergence",50%
same,pest or weed control at 62 g/ha,"[1]; 62 g ai/ha, preemergence",85%
same,pest or weed control at 125 g/ha,"[1]; 125 g ai/ha, preemergence",90%
same,pest or weed control at 16 g/ha,"[1]; Preemergence, 16 g ai/ha",10%
same,pest or weed control at 31 g/ha,"[2]; 31 g ai/ha, preemergence, scale 0 to 100",85%
same,pest or weed control at 62 g/ha,"[2]; 62 g ai/ha, preemergence, scale 0 to 100",100%
same,pest or weed control at 125 g/ha,"[2]; 125 g ai/ha, preemergence, scale 0 to 100",100%
same,pest or weed control at 16 g/ha,"[2]; Preemergence, 16 g ai/ha, scale 0 to 100 (0 no effect, 100 complete control)",35%
same,pest or weed control at 31 g/ha,"[3]; 31 g ai/ha, preemergence",30%
same,pest or weed control at 62 g/ha,"[3]; 62 g ai/ha, preemergence",90%
same,pest or weed control at 125 g/ha,"[3]; 125 g ai/ha, preemergence",90%
same,pest or weed control at 16 g/ha,"[3]; Preemergence, 16 g ai/ha",30%
same,"Corn plant response rating (crop injury, 0 = no effect, 100 = complete kill) at 31 g/ha","corn (Zea mays); 31 g ai/ha, preemergence",25%
same,"Corn plant response rating (crop injury, 0 = no effect, 100 = complete kill) at 62 g/ha","corn (Zea mays); 62 g ai/ha, preemergence",45%
same,"Corn plant response rating (crop injury, 0 = no effect, 100 = complete kill) at 125 g/ha","corn (Zea mays); 125 g ai/ha, preemergence",98%
same,"Corn plant response rating (crop injury, 0 = no effect, 100 = complete kill) at 16 g/ha","corn (Zea mays); Preemergence, 16 g ai/ha",5%
same,pest or weed control at 31 g/ha,"[4]; 31 g ai/ha, preemergence",100%
same,pest or weed control at 62 g/ha,"[4]; 62 g ai/ha, preemergence",100%
same,pest or weed control at 125 g/ha,"[4]; 125 g ai/ha, preemergence",100%
same,pest or weed control at 16 g/ha,"[4]; Preemergence, 16 g ai/ha",98%
same,pest or weed control at 31 g/ha,"[5]; 31 g ai/ha, preemergence",100%
same,pest or weed control at 62 g/ha,"[5]; 62 g ai/ha, preemergence",100%
same,pest or weed control at 125 g/ha,"[5]; 125 g ai/ha, preemergence",100%
same,pest or weed control at 16 g/ha,"[5]; Preemergence, 16 g ai/ha",90%
same,pest or weed control at 31 g/ha,"[6]; 31 g ai/ha, preemergence",100%
same,pest or weed control at 62 g/ha,"[6]; 62 g ai/ha, preemergence",100%
same,pest or weed control at 125 g/ha,"[6]; 125 g ai/ha, preemergence",98%
same,pest or weed control at 16 g/ha,"[6]; Preemergence, 16 g ai/ha",100%
same,pest or weed control at 31 g/ha,"[7]; 31 g ai/ha, preemergence",100%
same,pest or weed control at 62 g/ha,"[7]; 62 g ai/ha, preemergence",100%
same,pest or weed control at 125 g/ha,"[7]; 125 g ai/ha, preemergence",100%
same,pest or weed control at 16 g/ha,"[7]; Preemergence, 16 g ai/ha",98%
same,plant injury at 31 g/ha,"[8]; 31 g ai/ha, preemergence",100%
same,plant injury at 62 g/ha,"[8]; 62 g ai/ha, preemergence",100%
same,plant injury at 125 g/ha,"[8]; 125 g ai/ha, preemergence",100%
same,plant injury at 16 g/ha,"[8]; Preemergence, 16 g ai/ha",98%
same,pest or weed control at 31 g/ha,"[9]; 31 g ai/ha, preemergence",85%
same,pest or weed control at 62 g/ha,"[9]; 62 g ai/ha, preemergence",85%
same,pest or weed control at 125 g/ha,"[9]; 125 g ai/ha, preemergence",85%
same,pest or weed control at 16 g/ha,"[9]; Preemergence, 16 g ai/ha",65%
same,plant injury at 31 g/ha,"soybean (Glycine max); 31 g ai/ha, preemergence",90%
same,plant injury at 62 g/ha,"soybean (Glycine max); 62 g ai/ha, preemergence",95%
same,plant injury at 125 g/ha,"soybean (Glycine max); 125 g ai/ha, preemergence",98%
same,plant injury at 16 g/ha,"soybean (Glycine max); Preemergence, 16 g ai/ha",85%
same,pest or weed control at 31 g/ha,"[10]; 31 g ai/ha, preemergence",100%
same,pest or weed control at 62 g/ha,"[10]; 62 g ai/ha, preemergence",100%
same,pest or weed control at 125 g/ha,"[10]; 125 g ai/ha, preemergence",100%
same,pest or weed control at 16 g/ha,"[10]; Preemergence, 16 g ai/ha",100%
same,pest or weed control at 31 g/ha,"[11]; 31 g ai/ha, preemergence",100%
same,pest or weed control at 62 g/ha,"[11]; 62 g ai/ha, preemergence",100%
same,pest or weed control at 125 g/ha,"[11]; 125 g ai/ha, preemergence",100%
same,pest or weed control at 16 g/ha,"[11]; Preemergence, 16 g ai/ha",100%
same,plant injury at 31 g/ha,"[12]; 31 g ai/ha, preemergence",40%
same,plant injury at 62 g/ha,"[12]; 62 g ai/ha, preemergence",50%
same,plant injury at 125 g/ha,"[12]; 125 g ai/ha, preemergence",90%
same,plant injury at 16 g/ha,"[12]; Preemergence, 16 g ai/ha",0%
same,pest or weed control at 31 g/ha,"[13]; 31 g ai/ha, preemergence",5%
same,pest or weed control at 62 g/ha,"[13]; 62 g ai/ha, preemergence",35%
same,pest or weed control at 125 g/ha,"[13]; 125 g ai/ha, preemergence",85%
same,pest or weed control at 16 g/ha,"[13]; Preemergence, 16 g ai/ha",0%
